Results reported in patent publication US20170296682A1, “DERIVATIVES OF DIBENZOTHIOPHENE IMAGING OF alpha-7 NICOTINIC ACETYLCHOLINE RECEPTORS” (THE JOHNS HOPKINS UNIVERSITY, priority 2015, published 2017).
“And” between values parts separate entries of the source, which are not always exact repeats. Identical values can stand only once. Like-named read-outs stand apart in the source and are kept apart here.

What was measured:
α7-nAChR [1] = target: T1, α7-nAChR (Rattus norvegicus, UniProt Q05941); experiment: biochemical; type: binding
T1 sequence (Q05941 23-502): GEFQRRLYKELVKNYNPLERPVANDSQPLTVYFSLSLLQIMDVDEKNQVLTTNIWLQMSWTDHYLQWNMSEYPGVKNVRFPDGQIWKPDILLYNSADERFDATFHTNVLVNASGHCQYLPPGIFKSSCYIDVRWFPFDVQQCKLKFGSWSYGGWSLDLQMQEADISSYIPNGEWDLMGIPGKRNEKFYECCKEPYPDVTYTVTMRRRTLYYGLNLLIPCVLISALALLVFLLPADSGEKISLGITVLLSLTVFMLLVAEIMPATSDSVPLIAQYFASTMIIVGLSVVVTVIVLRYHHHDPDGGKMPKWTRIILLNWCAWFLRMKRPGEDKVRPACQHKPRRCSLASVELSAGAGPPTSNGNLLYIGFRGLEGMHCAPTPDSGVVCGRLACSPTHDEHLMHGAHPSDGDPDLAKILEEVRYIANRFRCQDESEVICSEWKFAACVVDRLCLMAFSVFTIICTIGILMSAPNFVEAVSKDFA

α3β2-nAChR = α3β2-nAChR (Rattus norvegicus, UniProt P04757+P12390); experiment: Heteromeric nAChR binding assay, transfected HEK293 membranes, [3H]epibatidine; conditions: stably transfected HEK293 cells, [3H]epibatidine (0.5 nM)
Chain of α3β2-nAChR (P04757 26-499): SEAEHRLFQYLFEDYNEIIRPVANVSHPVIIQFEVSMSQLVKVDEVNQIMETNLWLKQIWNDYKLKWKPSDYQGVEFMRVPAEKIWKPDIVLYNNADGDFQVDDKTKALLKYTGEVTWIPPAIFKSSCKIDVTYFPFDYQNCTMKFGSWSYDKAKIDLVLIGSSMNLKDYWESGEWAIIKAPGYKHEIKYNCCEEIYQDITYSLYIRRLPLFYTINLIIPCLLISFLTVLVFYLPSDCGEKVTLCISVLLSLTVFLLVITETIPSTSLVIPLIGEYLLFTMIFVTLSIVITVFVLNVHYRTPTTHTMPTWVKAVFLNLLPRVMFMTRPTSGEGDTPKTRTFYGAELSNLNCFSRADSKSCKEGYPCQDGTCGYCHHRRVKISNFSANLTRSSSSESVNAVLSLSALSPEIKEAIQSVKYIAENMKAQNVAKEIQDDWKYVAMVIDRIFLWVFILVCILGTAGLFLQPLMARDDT
Chain of α3β2-nAChR (P12390 25-500): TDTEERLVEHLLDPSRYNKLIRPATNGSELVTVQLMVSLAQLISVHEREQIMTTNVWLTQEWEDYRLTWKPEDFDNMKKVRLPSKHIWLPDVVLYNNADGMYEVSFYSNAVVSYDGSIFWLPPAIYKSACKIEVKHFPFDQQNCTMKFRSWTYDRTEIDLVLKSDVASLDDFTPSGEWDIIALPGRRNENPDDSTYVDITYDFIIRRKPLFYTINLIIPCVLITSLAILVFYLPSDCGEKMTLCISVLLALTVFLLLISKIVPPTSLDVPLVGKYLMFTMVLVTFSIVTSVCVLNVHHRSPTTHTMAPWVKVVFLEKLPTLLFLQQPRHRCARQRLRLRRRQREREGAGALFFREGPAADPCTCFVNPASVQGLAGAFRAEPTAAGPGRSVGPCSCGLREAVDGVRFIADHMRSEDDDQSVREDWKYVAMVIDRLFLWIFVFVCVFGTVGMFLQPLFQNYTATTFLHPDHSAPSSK

α2β2-nAChR = α2β2-nAChR (Rattus norvegicus, UniProt P12389+P12390); experiment: as above; conditions: stably transfected HEK293 cells, [3H]epibatidine (0.5 nM)
Chain of α2β2-nAChR (P12389 28-511): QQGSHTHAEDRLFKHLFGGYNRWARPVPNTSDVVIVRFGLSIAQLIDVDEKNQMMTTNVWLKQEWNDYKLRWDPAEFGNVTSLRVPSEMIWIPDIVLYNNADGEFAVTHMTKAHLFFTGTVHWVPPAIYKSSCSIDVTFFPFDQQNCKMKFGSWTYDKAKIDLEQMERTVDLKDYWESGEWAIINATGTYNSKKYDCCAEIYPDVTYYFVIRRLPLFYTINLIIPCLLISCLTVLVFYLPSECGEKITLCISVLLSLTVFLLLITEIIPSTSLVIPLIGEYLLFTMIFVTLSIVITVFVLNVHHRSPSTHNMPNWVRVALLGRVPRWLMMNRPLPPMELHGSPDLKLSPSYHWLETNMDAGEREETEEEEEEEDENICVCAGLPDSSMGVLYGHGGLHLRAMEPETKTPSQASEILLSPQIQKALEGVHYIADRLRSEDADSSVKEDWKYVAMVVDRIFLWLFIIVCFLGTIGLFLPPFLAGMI
Chain of α2β2-nAChR (P12390 25-500): as the sequence (P12390 25-500) above

α4β4-nAChR = target: T2, α4β4-nAChR (Rattus norvegicus, UniProt P09483+P12392); experiment: as above; conditions: stably transfected HEK293 cells, [3H]epibatidine (0.5 nM)
T2 construct: expressed in transfected cells
T2 sequence (P09483 31-630): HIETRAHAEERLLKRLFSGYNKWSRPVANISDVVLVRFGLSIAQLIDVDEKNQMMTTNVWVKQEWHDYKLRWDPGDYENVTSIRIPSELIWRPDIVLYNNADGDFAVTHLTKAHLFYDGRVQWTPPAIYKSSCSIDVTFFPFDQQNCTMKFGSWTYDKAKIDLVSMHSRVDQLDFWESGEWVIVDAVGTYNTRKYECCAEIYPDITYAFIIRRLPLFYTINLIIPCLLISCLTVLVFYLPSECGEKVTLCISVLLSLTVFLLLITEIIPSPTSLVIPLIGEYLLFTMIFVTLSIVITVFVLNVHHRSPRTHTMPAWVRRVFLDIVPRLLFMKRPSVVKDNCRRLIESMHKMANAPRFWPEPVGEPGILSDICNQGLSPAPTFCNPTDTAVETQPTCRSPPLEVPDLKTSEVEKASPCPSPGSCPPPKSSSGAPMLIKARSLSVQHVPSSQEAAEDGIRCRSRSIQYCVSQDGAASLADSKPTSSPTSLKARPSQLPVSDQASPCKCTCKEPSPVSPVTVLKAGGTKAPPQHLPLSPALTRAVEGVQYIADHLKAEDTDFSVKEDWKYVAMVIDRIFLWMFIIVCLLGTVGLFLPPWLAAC
T2 sequence (P12392 21-495): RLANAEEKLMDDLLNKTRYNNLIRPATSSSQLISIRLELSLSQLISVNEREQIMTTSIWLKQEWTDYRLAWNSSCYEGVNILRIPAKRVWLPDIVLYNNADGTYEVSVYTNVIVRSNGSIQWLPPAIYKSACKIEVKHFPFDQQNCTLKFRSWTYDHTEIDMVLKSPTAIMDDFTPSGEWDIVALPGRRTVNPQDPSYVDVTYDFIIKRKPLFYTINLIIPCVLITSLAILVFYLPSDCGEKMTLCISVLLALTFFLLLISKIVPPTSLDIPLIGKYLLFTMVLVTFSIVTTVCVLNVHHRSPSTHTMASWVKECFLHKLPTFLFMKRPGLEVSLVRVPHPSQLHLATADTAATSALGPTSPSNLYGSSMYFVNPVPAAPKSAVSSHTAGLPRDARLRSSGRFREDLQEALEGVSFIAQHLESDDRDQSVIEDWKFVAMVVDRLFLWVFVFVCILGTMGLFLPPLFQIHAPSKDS

α2β4-nAChR = target: T3, α2β4-nAChR (Rattus norvegicus, UniProt P12389+P12392); experiment: as above; conditions: stably transfected HEK293 cells, [3H]epibatidine (0.5 nM)
T3 construct: expressed in transfected cells
T3 sequence (P12389 28-511): as the sequence (P12389 28-511) above
T3 sequence (P12392 21-495): as the sequence (P12392 21-495) above

Human 5-HT3 [2] = target: T4, Human 5-HT3 (Homo sapiens, UniProt P46098); experiment: 5-HT3(h) binding assay, recombinant HEK293 cells, [3H]GR65630
T4 sequence (P46098 24-478): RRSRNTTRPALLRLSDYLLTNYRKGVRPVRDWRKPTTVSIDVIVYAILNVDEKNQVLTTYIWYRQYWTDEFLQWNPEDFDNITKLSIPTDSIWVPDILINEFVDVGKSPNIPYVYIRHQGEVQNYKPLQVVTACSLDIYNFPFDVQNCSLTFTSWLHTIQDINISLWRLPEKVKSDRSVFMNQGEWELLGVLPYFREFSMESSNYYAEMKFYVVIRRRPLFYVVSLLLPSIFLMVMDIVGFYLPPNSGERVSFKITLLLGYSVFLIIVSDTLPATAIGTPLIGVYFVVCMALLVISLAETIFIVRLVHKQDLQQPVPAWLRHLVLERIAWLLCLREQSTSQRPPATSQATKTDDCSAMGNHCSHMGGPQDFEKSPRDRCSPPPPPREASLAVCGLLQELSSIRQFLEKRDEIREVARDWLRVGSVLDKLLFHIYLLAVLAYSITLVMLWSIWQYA

α3β4-nAChR = target: T5, α3β4-nAChR (Rattus norvegicus, UniProt P04757+P12392); experiment: Heteromeric nAChR binding assay, transfected HEK293 membranes, [3H]epibatidine; conditions: stably transfected HEK293 cells, [3H]epibatidine (0.5 nM)
T5 construct: expressed in transfected cells
T5 sequence (P04757 26-499): as the sequence (P04757 26-499) above
T5 sequence (P12392 21-495): as the sequence (P12392 21-495) above

α7-nAChR [3] = target: T6, α7-nAChR (Mus musculus, UniProt P49582); conditions: in vivo
T6 sequence (P49582 23-502): as the sequence (Q05941 23-502) above, with A402T counted along it

α4β2-nAChR = α4β2-nAChR (Rattus norvegicus, UniProt P09483+P12390); experiment: Heteromeric nAChR binding assay, transfected HEK293 membranes, [3H]epibatidine
Chain of α4β2-nAChR (P09483 31-630): as the sequence (P09483 31-630) above
Chain of α4β2-nAChR (P12390 25-500): as the sequence (P12390 25-500) above

rat a7-nAChR = rat a7-nAChR (Rattus norvegicus, UniProt Q05941); experiment: biochemical; type: binding
Chain of rat a7-nAChR (Q05941 23-502): as the sequence (Q05941 23-502) above

rat α7-nAChRs = rat α7-nAChRs (Rattus norvegicus, UniProt Q05941); type: cell-based
Chain of rat α7-nAChRs (Q05941 23-502): as above

[4] = 18F-ASEM radiometabolite analysis in baboon; conditions: baboons, 90 min after injection
Description: (§1) Baboon arterial blood samples were withdrawn at 5, 10, 20, 30, 60, and 90 min after ^18-FASEM injection, and plasma was analyzed by HPLC. Male CD-1 mice (25-26 g) were injected via the lateral tail veins with 37 MBq of high-specific-activity ^18-FASEM. The mice were killed by cervical dislocation at 2 and 30 min after injection, and a terminal blood sample was obtained.

α7-nAChR [5] = target: T6, α7-nAChR; set-up: The brains were rapidly removed and dissected on ice; tissue Charles River Laboratories; host or cells: brain of live male CD-1 mice; species or system CD-1 mice; conditions: in vivo
[6] = male, CD-1, mouse, in vivo, iv
Description: as §1

[7] = male, human, in vivo
a7-nAChR = conditions: for Mean occupancy of a7-nAChRs: baboon
[8] = 18F-ASEM radiometabolite analysis in mice
Description: as §1

α7-nAChR [9] = target: T7, α7-nAChR (Homo sapiens, UniProt P36544); conditions: in vivo
T7 sequence (P36544 23-502): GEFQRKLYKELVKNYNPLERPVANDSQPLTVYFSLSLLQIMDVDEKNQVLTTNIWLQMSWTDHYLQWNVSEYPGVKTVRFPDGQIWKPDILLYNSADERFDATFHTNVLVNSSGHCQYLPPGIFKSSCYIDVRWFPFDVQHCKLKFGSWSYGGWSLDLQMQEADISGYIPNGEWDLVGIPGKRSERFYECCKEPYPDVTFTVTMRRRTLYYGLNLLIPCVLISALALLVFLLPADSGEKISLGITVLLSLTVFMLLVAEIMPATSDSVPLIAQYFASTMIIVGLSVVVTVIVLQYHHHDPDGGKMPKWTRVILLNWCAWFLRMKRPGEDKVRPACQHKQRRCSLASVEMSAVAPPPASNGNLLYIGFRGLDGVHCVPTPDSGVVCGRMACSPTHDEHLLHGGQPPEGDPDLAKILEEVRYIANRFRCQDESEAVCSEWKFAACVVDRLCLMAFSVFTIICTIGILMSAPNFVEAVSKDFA

[10] = type: binding; conditions: read-out: human Ki α7-nAChR
α7-nAChR [11] = target: T6, α7-nAChR; set-up: studied in mice, pigs, and non-human primates as potential α7-nAChR probes; host or cells: mouse brain (cortex) in vivo; species or system mice; conditions: in vivo
α7-nAChR [12] = target: T6, α7-nAChR; set-up: The brains were rapidly removed and dissected on ice; tissue Charles River Laboratories; host or cells: brain of live male CD-1 mice; species or system CD-1 mice; conditions: in vivo; remark: listed apart in the source
α7-nAChR [13] = target: T6, α7-nAChR; conditions: drugs 2 mg/kg sc, 10 min before radiotracer, 90 min
α7-nAChR [14] = target: T7, α7-nAChR; conditions: read-out: Ki α7-nAChR (literature); cited from earlier work
α7-nAChR [15] = target: T1, α7-nAChR; conditions: read-out: KD of radiotracer, α7-nAChR; cited from earlier work
Human 5-HT3 [16] = target: T4, Human 5-HT3; conditions: read-out: KD of radiotracer, 5-HT3; cited from earlier work
[17] = male, baboon (Papio anubis), in vivo

O=S1(=O)c2cc(N3CCN4CCC3CC4)ccc2-c2cccc(F)c21 [Compound 7a, 3-(1,4-Diazabicyclo[3.2.2]nonan-4-yl)-6-fluorodibenzo[b,d]thiophene 5,5-Dioxide]
Ki (α7-nAChR [1]; read-out: Ki α7-nAChR): 0.37 nM and 0.45 nM
Ki (α7-nAChR [1]; read-out: Ki α7-nAChR (text)): 0.4 nM
Ki (α3β2-nAChR): 1000 nM
Ki (α2β2-nAChR): > 10000 nM
Ki (α4β4-nAChR): 1000 nM
Ki (α2β4-nAChR): 4000 nM
selectivity α7/5HT3 (Human 5-HT3 [2]): 561
Ki (Human 5-HT3 [2]; Human 5-HT3 recombinant/HEK293 cells, [3H]GR65630 (0.35 nM)): 230 nM
Ki (α3β4-nAChR): 709 nM
behavioral / locomotor activity changes (α7-nAChR [3]): Neither behavioral nor locomotor activity changes were observed
selectivity α7/α4β2 (α4β2-nAChR): 1370
Ki (α4β2-nAChR; stably transfected HEK293 cells, [3H]epibatidine (0.5 nM)): 562 nM
Ki (rat a7-nAChR): 0.3 nM
block of acetylcholine activation (rat α7-nAChRs): nearly completely blocked activation by acetylcholine

O=S1(=O)c2cc(N3CCN4CCC3CC4)ccc2-c2cccc([18F])c21 [[^18F]7a]
combined radiometabolites in the plasma [4]: 70%
Approximate BPND, Coll (α7-nAChR [5]): 8.0 and 8.0 ± 1.6
Approximate BPND, Ctx (α7-nAChR [5]): 5.3 and 5.3 ± 1.2
Approximate BPND, Hipp (α7-nAChR [5]): 5.5 and 5.5 ± 1.7
BPND in control mice (α7-nAChR [5]): 8 and 5.3-8.0
ratios of tissues to cerebellum (α7-nAChR [5]; iv): 10
Ki (α7-nAChR [1]; Ki α7-nAChR (text)): 0.4 nM
unchanged parent in the mouse brain [6]: at least 95%
time of plasma TAC peak [7]: ≤ 1 min
parent metabolized ([7]; 0.5 h): 52.6±12.9%
parent metabolized ([7]; 1.5 h): 83.5±9.7%
Regional BPND ([VT/VND]−1) (a7-nAChR; in vivo): 3.9 to 6.6 and 3.9-6.6
nonspecific binding (a7-nAChR; in vivo): less than 30%
specific binding (a7-nAChR; in vivo): 80%-90%
brain uptake (a7-nAChR; [17]): 500 % standardized uptake value [SUV]
lowest observed VT (a7-nAChR; [17]): 14 mL/mL
unchanged parent in the mouse blood ([8]; after intravenous administration): approximately 1%
combined radiometabolites in the plasma ([8]; mice, 30 min after injection): approximately 99%
binding potential BPND (α7-nAChR [9]): ~1
test-retest variability (TRV) (α7-nAChR [9]): 10.8±5.1%
VT, lower regions (α7-nAChR [9]; male, human): G15 ml/ml
VT, relatively high regions (α7-nAChR [9]; male, human): 920 ml/ml
peak brain uptake (α7-nAChR [9]; male, human): 400 %SUV
time of peak brain uptake (α7-nAChR [9]; male, human): 10 to 15 min
baseline-to-blockade ratio (α7-nAChR [3]): 13
specific binding value (α7-nAChR [3]): 94%
acetylcholine-induced whole-cell current restored, of baseline (rat α7-nAChRs): 60%
Ki [10]: 0.3 nM
regional brain uptake in mutant DISC1 versus control mice (α7-nAChR [11]): significantly lower in all regions studied

O=C(Oc1ccc(Br)cc1)N1CCN2CCC1CC2 [Compound 1, reference compound]
blockade of [18F]7a accumulation in mouse brain (α7-nAChR [12]): dose dependent blockade in all regions studied
Mean occupancy of a7-nAChRs (a7-nAChR; dose of 0.5 mg/kg iv, individual VND values): 38%
Mean occupancy of a7-nAChRs (a7-nAChR; dose of 0.5 mg/kg iv, mean VND value of 2 doses): 32.9%
Mean occupancy of a7-nAChRs (a7-nAChR; dose of 5 mg/kg iv, individual VND values): 80.5%
Mean occupancy of a7-nAChRs (a7-nAChR; dose of 5 mg/kg iv, mean VND value of 2 doses): 94.1%
effect on accumulation of [18F]7a in mouse brain (α7-nAChR [13]): reduced accumulation of radioactivity
Ki (α7-nAChR [14]): 22 nM

[^125I]α-bungarotoxin
Kd (α7-nAChR [15]): 0.7 nM

Cc1[nH]cnc1CCC(=O)c1cn(C)c2ccccc12 [[^3H]GR65630]
Kd (Human 5-HT3 [16]): 0.5 nM
